Reference: patent US10172821B2, “Histone deacetylase inhibitors” (President & Fellows of Harvard College, priority 2006, dated 2019)

Legend:
[1] = Degradation of SAHP in serum; assay type: in vitro ADME
Description: In less than 15 minutes, SAHP is completely degraded.
In less than 2 minutes, SAHP is completely degraded into phenol and the corresponding carboxylic acid.

[2] = system: Transformed lymphocytes derived from involved skin of IL-7 transgenic mice (lymphoproliferative disease similar to human cutaneous T-cell lymphoma); test: Topical treatment of mice with lymphoproliferative skin disease (CTCL model), histopathologic examination; assay type: in vivo; settings: daily, fourteen days of therapy, versus vehicle control, FIG. 14
From the text: FIG. 14. Interleukin-7 is a growth factor for T-cell development, in particular the gamma-delta subset. Transgenic mice overexpressing IL-7 in keratinocytes were developed by the laboratories of Thomas Kupper and Benjamin Rich, using a tissue-specific keratin-14 promoter element. These mice have been reported to develop a characteristic lymphoproliferative skin disease grossly and histologically similar to human cutaneous T-cell lymphoma (CTCL). Transformed lymphocytes derived from involved skin were passaged ex vivo and injected into syngeneic (non-transgenic) mice. After fourteen days, these mice develop a homogeneous lymphoproliferative disease. Two cohorts of five mice were included in a prospective study of topical, daily suberoyl hydroxamic acid phenyl ester (SAHP, also known as SHAPE) versus vehicle control. After fourteen days of therapy, mice were sacrificed and the treated region was dissected for histopathologic examination.

[3] = system: acetylated histones (AcH3K18); test: Pharmacodynamic effect by immunohistochemical staining for acetylated histones; assay type: in vivo; settings: SAHP-treated mice compared to vehicle treated controls; FIG. 15

time until SAHP is completely degraded in serum ([1]; FIG. 6): less than 15 minutes
time until SAHP is completely degraded into phenol and the corresponding carboxylic acid ([1]; more detailed study, FIG. 7): less than 2 minutes
Compound: O=C(CCCCCCC(=O)Oc1ccccc1)NO [SAHP, suberoyl hydroxamic acid phenyl ester]
lymphomatous infiltration within the treated window (hematoxylin-eosin staining) [2]: marked reduction in lymphomatous infiltration
AcH3K18 staining (histone hyperacetylation) in treated skin [3]: hyperacetylated histone staining at the margin of compound treatment, with absent nuclear staining in the region of drug response
